What was measured:
Assay in all cases: radiometric filter-binding kinase assay
Conditions in all cases: compound 100.0 µM
MINK1 (human) = MINK1 (human) (UniProt Q8N4C8)
DYRK2 (human) = DYRK2 (human) (UniProt Q92630)
DYRK3 (human) = DYRK3 (human) (UniProt O43781)
MAPK8 (human) = MAPK8 (human) (UniProt P45983)
GSK3B (human) = GSK3B (human) (UniProt P49841)
MAPKAPK3 (human) = MAPKAPK3 (human) (UniProt Q16644)
PIM1 (human) = PIM1 (human) (UniProt P11309)
CLK2 (human) = CLK2 (human) (UniProt P49760)
MAPK14 (human) = MAPK14 (human) (UniProt Q16539)
MAPK1 (human) = MAPK1 (human) (UniProt P28482)
NUAK1 (human) = NUAK1 (human) (UniProt O60285)
MARK2 (human) = MARK2 (human) (UniProt Q7KZI7)
AURKB (human) = AURKB (human) (UniProt Q96GD4)
MAPK11 (human) = MAPK11 (human) (UniProt Q15759)
MAPK12 (human) = MAPK12 (human) (UniProt P53778)
[1] = system: AKT2 (human), P31751 [S474D]
Sequence of AKT2 (human), P31751 [S474D] (P31751 whole entry S474D, looked up): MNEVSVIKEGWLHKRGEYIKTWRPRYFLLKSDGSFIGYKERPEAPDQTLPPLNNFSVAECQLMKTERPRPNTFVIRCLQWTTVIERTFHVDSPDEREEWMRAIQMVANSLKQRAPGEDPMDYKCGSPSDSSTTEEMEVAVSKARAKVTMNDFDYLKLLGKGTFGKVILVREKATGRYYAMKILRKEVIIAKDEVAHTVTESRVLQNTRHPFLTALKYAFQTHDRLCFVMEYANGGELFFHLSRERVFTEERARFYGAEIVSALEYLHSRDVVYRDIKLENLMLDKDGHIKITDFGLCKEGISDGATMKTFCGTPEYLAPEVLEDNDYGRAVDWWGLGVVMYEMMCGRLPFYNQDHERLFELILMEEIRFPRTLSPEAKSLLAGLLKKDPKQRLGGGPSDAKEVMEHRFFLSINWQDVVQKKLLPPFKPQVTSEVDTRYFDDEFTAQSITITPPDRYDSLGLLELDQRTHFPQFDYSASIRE

PIM3 (human) = PIM3 (human) (UniProt Q86V86)
MAP3K9 (human) = MAP3K9 (human) (UniProt P80192)
Sequence of MAP3K9 (human) (P80192 whole entry, looked up): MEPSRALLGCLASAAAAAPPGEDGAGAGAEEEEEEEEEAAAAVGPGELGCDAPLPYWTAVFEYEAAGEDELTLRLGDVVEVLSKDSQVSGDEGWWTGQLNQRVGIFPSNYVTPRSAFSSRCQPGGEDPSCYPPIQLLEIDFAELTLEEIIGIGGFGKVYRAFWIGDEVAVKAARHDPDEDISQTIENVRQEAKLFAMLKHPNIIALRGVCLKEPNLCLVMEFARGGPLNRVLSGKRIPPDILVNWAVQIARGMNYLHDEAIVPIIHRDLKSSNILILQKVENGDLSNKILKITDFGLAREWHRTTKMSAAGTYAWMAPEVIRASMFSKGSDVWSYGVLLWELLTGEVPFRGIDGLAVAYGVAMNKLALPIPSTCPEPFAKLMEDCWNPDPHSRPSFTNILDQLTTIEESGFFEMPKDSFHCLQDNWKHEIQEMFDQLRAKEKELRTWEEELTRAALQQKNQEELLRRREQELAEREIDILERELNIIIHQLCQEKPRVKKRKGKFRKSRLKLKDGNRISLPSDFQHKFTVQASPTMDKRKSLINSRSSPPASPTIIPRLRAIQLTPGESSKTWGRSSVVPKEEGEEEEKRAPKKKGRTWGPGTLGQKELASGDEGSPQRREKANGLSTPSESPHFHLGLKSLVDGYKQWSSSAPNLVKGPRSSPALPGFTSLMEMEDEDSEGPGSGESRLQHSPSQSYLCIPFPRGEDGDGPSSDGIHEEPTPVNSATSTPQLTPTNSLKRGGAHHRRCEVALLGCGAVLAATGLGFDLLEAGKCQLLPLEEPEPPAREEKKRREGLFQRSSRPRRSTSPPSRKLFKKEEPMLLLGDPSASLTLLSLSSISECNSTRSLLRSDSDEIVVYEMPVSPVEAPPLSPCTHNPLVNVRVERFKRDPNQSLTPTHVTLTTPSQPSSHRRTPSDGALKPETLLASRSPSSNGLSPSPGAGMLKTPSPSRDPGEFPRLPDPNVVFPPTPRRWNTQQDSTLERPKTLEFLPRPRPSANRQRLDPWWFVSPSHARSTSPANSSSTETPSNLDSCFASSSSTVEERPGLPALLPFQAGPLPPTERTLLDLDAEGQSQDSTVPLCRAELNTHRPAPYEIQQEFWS

MAPK13 (human) = MAPK13 (human) (UniProt O15264)
MAPK9 (human) = MAPK9 (human) (UniProt P45984)
CHEK2 (human) = CHEK2 (human) (UniProt O96017)
MAPK10 (human) = MAPK10 (human) (UniProt P53779)
IKBKE (human) = IKBKE (human) (UniProt Q14164)
TTK (human) = TTK (human) (UniProt P33981)
HIPK2 (human) = HIPK2 (human) (UniProt Q9H2X6)
DYRK1A (human) = DYRK1A (human) (UniProt Q13627)
RIPK2 (human) = RIPK2 (human) (UniProt O43353)
INSRR (human) = INSRR (human) (UniProt P14616)
PLK1 (human) = PLK1 (human) (UniProt P53350)
FGFR1 (human) = FGFR1 (human) (UniProt P11362)
FLT1 (human) = FLT1 (human) (UniProt P17948)
MAP3K11 (human) = MAP3K11 (human) (UniProt Q16584)
INSR (human) = INSR (human) (UniProt P06213)
Sequence of INSR (human) (P06213 whole entry, looked up): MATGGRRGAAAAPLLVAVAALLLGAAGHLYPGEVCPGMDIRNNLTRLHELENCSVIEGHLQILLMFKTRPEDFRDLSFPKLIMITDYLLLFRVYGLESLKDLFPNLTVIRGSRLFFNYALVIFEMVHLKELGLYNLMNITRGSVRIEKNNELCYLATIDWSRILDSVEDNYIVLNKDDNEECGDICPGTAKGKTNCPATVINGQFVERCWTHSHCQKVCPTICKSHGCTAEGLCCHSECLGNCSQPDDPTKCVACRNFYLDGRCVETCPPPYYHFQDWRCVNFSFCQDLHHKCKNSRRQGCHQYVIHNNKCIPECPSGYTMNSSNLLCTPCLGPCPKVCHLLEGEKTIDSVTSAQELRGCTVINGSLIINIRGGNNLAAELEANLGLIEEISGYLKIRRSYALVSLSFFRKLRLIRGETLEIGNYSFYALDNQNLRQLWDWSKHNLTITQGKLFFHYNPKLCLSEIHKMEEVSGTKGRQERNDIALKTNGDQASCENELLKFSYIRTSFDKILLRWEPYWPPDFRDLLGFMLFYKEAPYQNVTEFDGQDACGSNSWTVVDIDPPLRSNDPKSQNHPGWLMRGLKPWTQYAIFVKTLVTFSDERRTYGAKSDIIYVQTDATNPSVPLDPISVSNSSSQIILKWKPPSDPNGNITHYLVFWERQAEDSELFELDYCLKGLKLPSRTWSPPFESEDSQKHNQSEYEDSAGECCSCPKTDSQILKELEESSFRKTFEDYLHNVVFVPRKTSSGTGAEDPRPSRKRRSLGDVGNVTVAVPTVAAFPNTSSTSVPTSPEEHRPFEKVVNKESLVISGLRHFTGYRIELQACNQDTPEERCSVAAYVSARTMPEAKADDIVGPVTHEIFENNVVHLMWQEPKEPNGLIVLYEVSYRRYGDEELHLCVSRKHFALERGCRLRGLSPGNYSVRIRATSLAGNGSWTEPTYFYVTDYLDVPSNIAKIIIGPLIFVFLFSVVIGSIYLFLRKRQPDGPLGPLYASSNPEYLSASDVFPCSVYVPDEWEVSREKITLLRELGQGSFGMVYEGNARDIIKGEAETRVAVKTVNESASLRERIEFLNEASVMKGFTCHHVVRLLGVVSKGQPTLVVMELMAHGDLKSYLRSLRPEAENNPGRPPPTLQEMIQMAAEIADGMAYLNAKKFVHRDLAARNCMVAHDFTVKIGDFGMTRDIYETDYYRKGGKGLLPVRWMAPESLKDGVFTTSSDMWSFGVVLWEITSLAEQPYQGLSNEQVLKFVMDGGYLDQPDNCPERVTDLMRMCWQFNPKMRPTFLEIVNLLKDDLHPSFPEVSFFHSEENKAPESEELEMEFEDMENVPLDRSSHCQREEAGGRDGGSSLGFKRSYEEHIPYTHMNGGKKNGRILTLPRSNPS

NEK2 (human) = NEK2 (human) (UniProt P51955)
AURKA (human) = AURKA (human) (UniProt O14965)
MAPK3 (human) = MAPK3 (human) (UniProt P27361)
BTK (human) = BTK (human) (UniProt Q06187)
MAPKAPK2 (human) = MAPKAPK2 (human) (UniProt P49137)
RPS6KA3 KD1 KD2 (human) = RPS6KA3 KD1 KD2 (human) (UniProt P51812)
CaMK1 (human) = CaMK1 (human) (UniProt Q14012)
ERBB4 (human) = ERBB4 (human) (UniProt Q15303)

Sequence of MINK1 (human) (Q8N4C8 whole entry, looked up): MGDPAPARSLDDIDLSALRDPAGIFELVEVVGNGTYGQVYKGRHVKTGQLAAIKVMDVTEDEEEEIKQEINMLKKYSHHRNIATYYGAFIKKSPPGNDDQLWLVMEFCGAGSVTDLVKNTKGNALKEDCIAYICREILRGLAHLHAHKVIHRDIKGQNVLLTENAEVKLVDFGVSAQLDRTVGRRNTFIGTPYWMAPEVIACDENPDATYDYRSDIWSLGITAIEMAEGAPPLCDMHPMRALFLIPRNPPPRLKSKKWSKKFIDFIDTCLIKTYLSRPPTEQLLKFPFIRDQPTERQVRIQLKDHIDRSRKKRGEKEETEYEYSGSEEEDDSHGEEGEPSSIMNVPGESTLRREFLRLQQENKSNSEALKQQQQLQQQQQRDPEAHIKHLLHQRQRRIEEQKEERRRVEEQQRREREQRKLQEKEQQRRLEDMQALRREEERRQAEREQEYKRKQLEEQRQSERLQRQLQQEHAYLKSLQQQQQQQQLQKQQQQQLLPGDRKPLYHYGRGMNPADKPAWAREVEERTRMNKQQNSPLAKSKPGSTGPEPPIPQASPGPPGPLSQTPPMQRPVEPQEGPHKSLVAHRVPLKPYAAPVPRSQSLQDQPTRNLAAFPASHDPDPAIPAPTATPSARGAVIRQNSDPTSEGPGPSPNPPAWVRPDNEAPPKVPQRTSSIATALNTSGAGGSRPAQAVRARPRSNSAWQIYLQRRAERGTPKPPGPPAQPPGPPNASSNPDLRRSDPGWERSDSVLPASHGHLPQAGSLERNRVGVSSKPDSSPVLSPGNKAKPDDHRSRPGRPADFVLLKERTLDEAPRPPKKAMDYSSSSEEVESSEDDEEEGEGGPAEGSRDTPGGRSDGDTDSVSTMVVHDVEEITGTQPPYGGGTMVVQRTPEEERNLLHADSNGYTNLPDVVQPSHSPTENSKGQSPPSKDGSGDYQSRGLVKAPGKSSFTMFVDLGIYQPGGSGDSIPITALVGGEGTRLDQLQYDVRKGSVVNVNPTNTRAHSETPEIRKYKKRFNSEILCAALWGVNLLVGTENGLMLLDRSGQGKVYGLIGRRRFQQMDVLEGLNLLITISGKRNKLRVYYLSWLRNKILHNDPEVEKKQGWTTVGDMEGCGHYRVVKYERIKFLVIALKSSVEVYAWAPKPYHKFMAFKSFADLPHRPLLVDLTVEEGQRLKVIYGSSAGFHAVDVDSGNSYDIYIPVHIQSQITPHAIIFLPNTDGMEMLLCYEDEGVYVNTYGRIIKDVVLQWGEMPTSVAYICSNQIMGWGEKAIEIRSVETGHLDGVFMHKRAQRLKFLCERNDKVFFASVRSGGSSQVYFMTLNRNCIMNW
Sequence of GSK3B (human) (P49841 whole entry, looked up): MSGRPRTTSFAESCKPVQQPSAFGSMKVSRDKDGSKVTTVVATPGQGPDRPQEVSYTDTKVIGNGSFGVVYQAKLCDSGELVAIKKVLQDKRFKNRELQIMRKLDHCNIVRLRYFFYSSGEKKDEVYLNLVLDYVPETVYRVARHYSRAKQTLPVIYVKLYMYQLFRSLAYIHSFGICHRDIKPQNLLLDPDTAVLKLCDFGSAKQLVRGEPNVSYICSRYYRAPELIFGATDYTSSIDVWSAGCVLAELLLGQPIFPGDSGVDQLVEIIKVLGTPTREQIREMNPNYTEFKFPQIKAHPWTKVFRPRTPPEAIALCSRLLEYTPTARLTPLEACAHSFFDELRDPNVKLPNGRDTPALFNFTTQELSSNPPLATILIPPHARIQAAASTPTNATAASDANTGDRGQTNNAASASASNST
Sequence of PIM1 (human) (P11309 whole entry, looked up): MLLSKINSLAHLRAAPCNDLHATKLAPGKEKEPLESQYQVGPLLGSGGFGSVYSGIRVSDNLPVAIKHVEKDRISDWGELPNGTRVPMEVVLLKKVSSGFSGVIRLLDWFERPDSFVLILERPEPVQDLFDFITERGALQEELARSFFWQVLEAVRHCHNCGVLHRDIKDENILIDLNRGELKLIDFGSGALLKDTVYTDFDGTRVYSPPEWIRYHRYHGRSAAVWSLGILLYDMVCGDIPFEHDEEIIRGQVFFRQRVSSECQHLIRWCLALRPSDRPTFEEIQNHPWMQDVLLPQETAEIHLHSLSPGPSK

Cc1cccc(Nc2nc(-c3sc(N)nc3C)cs2)n1
residual activity (MINK1 (human)): 2% | residual activity (DYRK2 (human)): 23% | residual activity (DYRK3 (human)): 23% | residual activity (MAPK8 (human)): 83% | residual activity (GSK3B (human)): 78% | residual activity (MAPKAPK3 (human)): 8% | residual activity (PIM1 (human)): 13% | residual activity (CLK2 (human)): 18% | residual activity (MAPK14 (human)): 36% | residual activity (MAPK1 (human)): 73% | residual activity (NUAK1 (human)): 14% | residual activity (MARK2 (human)): 66% | residual activity (AURKB (human)): 5% | residual activity (MAPK11 (human)): 69% | residual activity (MAPK12 (human)): 60% | residual activity [1]: 8% | residual activity (PIM3 (human)): 6% | residual activity (MAP3K9 (human)): 4% | residual activity (MAPK13 (human)): 65% | residual activity (MAPK9 (human)): 88% | residual activity (CHEK2 (human)): 41% | residual activity (MAPK10 (human)): 80% | residual activity (IKBKE (human)): 9% | residual activity (TTK (human)): 44% | residual activity (HIPK2 (human)): 7% | residual activity (DYRK1A (human)): 18% | residual activity (RIPK2 (human)): 23% | residual activity (INSRR (human)): 26% | residual activity (PLK1 (human)): 90% | residual activity (FGFR1 (human)): 29% | residual activity (FLT1 (human)): 12% | residual activity (MAP3K11 (human)): 5% | residual activity (INSR (human)): 99% | residual activity (NEK2 (human)): 19% | residual activity (AURKA (human)): 7% | residual activity (MAPK3 (human)): 19% | residual activity (BTK (human)): 21% | residual activity (MAPKAPK2 (human)): 8% | residual activity (RPS6KA3 KD1 KD2 (human)): 11% | residual activity (CaMK1 (human)): 3% | residual activity (ERBB4 (human)): 19%
